ChEMBL document CHEMBL1201862, “PubChem BioAssay data set” (2004)
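A five-concentration, 48-hour dose response in 96-well plates underlies each endpoint, interpolated linearly between surrounding concentrations. Abbreviation: GI50, concentration required for 50% inhibition of growth.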 Active and inactive are the calls of the source. No stated cut-off is given here; in the data, active = GI50 up to about 1.1 µM and inactive = higher.

Key:
Assay in all cases: growth of human tumour cells (NCI), 48 h
KM12 = tested on: KM12
DMS-273 = tested on: DMS-273
DLD-1 = tested on: DLD-1
NCI-H460 = tested on: NCI-H460
SR = tested on: SR
OVCAR-5 = tested on: OVCAR-5
SK-MEL-28 = tested on: SK-MEL-28
TK-10 = tested on: TK-10
HCT-15 = tested on: HCT-15
SK-OV-3 = tested on: SK-OV-3
Malme-3M = tested on: Malme-3M
786-0 = tested on: 786-0
SNB-75 = tested on: SNB-75
KM-20L2 = tested on: KM-20L2
SN12C = tested on: SN12C
A498 = tested on: A498
U-251 = tested on: U-251
MOLT-4 = tested on: MOLT-4
NCI-H522 = tested on: NCI-H522
NCI-H23 = tested on: NCI-H23
M19-MEL = tested on: M19-MEL
A549 = tested on: A549
HL-60 = tested on: HL-60
SK-MEL-5 = tested on: SK-MEL-5
LOX IMVI = tested on: LOX IMVI
SF-539 = tested on: SF-539
SF-268 = tested on: SF-268
ACHN = tested on: ACHN
SNB-19 = tested on: SNB-19
HCT-116 = tested on: HCT-116
SK-MEL-2 = tested on: SK-MEL-2
NCI-H226 = tested on: NCI-H226
OVCAR-8 = tested on: OVCAR-8
DMS-114 = tested on: DMS-114
K562 = tested on: K562
UACC-257 = tested on: UACC-257
EKVX = tested on: EKVX
HCC 2998 = tested on: HCC 2998
RPMI-8226 = tested on: RPMI-8226
OVCAR-3 = tested on: OVCAR-3
HOP-62 = tested on: HOP-62
IGROV-1 = tested on: IGROV-1
UACC-62 = tested on: UACC-62
CAKI-1 = tested on: CAKI-1
COLO 205 = tested on: COLO 205
HOP-92 = tested on: HOP-92
UO-31 = tested on: UO-31
SF-295 = tested on: SF-295
SNB-78 = tested on: SNB-78
CCRF-CEM = tested on: CCRF-CEM
LXFL 529 = tested on: LXFL 529
HT-29 = tested on: HT-29
M14 = tested on: M14
OVCAR-4 = tested on: OVCAR-4
SW-620 = tested on: SW-620
XF498 = tested on: XF498

Structure (SMILES): O=C1C=CC(=O)N1Nc1ccc([N+](=O)[O-])cc1[N+](=O)[O-]
- GI50 (KM12): > 100 µM (inactive)
- GI50 (DMS-273): > 100 µM (inactive)
- GI50 (DLD-1): > 100 µM (inactive)
- GI50 (NCI-H460): > 100 µM (inactive)
- GI50 (SR): > 38.5 µM (inactive)
- GI50 (OVCAR-5): > 100 µM (inactive)
- GI50 (SK-MEL-28): > 43.4 µM (inactive)
- GI50 (TK-10): > 100 µM (inactive)
- GI50 (HCT-15): > 74.1 µM
- GI50 (SK-OV-3): > 100 µM (inactive)
- GI50 (Malme-3M): 16.8 µM (inactive)
- GI50 (786-0): > 70.1 µM (inactive)
- GI50 (SNB-75): > 100 µM (inactive)
- GI50 (KM-20L2): > 100 µM (inactive)
- GI50 (SN12C): > 100 µM (inactive)
- GI50 (A498): 62.1 µM (inactive)
- GI50 (U-251): > 100 µM (inactive)
- GI50 (MOLT-4): 33.3 µM (inactive)
- GI50 (NCI-H522): > 42.7 µM (inactive)
- GI50 (NCI-H23): > 100 µM (inactive)
- GI50 (M19-MEL): > 89.7 µM (inactive)
- GI50 (A549): > 100 µM (inactive)
- GI50 (HL-60): 25.8 µM (inactive)
- GI50 (SK-MEL-5): > 100 µM (inactive)
- GI50 (LOX IMVI): > 100 µM (inactive)
- GI50 (SF-539): > 100 µM (inactive)
- GI50 (SF-268): > 100 µM (inactive)
- GI50 (ACHN): > 100 µM (inactive)
- GI50 (SNB-19): > 100 µM (inactive)
- GI50 (HCT-116): > 100 µM (inactive)
- GI50 (SK-MEL-2): > 100 µM (inactive)
- GI50 (NCI-H226): 97.1 µM (inactive)
- GI50 (OVCAR-8): > 100 µM (inactive)
- GI50 (DMS-114): > 100 µM (inactive)
- GI50 (K562): > 42.4 µM (inactive)
- GI50 (UACC-257): > 56.2 µM (inactive)
- GI50 (EKVX): > 100 µM (inactive)
- GI50 (HCC 2998): > 100 µM (inactive)
- GI50 (RPMI-8226): > 44.5 µM (inactive)
- GI50 (OVCAR-3): 98.4 µM (inactive)
- GI50 (HOP-62): > 100 µM (inactive)
- GI50 (IGROV-1): > 100 µM (inactive)
- GI50 (UACC-62): > 100 µM (inactive)
- GI50 (CAKI-1): > 47.9 µM (inactive)
- GI50 (COLO 205): > 42.8 µM (inactive)
- GI50 (HOP-92): > 49.1 µM (inactive)
- GI50 (UO-31): > 100 µM (inactive)
- GI50 (SF-295): > 100 µM (inactive)
- GI50 (SNB-78): > 100 µM (inactive)
- GI50 (CCRF-CEM): 14 µM (inactive)
- GI50 (LXFL 529): > 44.5 µM (inactive)
- GI50 (HT-29): > 71.4 µM (inactive)
- GI50 (M14): 19.9 µM (inactive)
- GI50 (OVCAR-4): > 42.3 µM (inactive)
- GI50 (SW-620): > 67.3 µM (inactive)

Structure (SMILES): O=C1C2=C(c3ccccc31)C(c1cccc(Cl)c1)NC(S)=N2 (stereo not drawn)
- GI50 (KM12): 45.9 µM (inactive)
- GI50 (DMS-273): 80.9 µM (inactive)
- GI50 (DLD-1): > 100 µM (inactive)
- GI50 (NCI-H460): > 100 µM (inactive)
- GI50 (OVCAR-5): > 100 µM (inactive)
- GI50 (SK-MEL-28): > 100 µM (inactive)
- GI50 (TK-10): > 100 µM (inactive)
- GI50 (XF498): > 100 µM (inactive)
- GI50 (HCT-15): > 100 µM
- GI50 (SK-OV-3): > 100 µM (inactive)
- GI50 (Malme-3M): > 100 µM (inactive)
- GI50 (786-0): > 100 µM (inactive)
- GI50 (SNB-75): 31.9 µM (inactive)
- GI50 (KM-20L2): > 100 µM (inactive)
- GI50 (SN12C): > 100 µM (inactive)
- GI50 (A498): > 100 µM (inactive)
- GI50 (U-251): > 100 µM (inactive)
- GI50 (MOLT-4): 91.8 µM (inactive)
- GI50 (NCI-H522): > 100 µM (inactive)
- GI50 (NCI-H23): > 100 µM (inactive)
- GI50 (M19-MEL): > 100 µM (inactive)
- GI50 (A549): > 100 µM (inactive)
- GI50 (HL-60): > 100 µM (inactive)
- GI50 (SK-MEL-5): 55.1 µM (inactive)
- GI50 (SF-539): > 100 µM (inactive)
- GI50 (SF-268): > 100 µM (inactive)
- GI50 (ACHN): 68.1 µM (inactive)
- GI50 (SNB-19): > 100 µM (inactive)
- GI50 (HCT-116): > 100 µM (inactive)
- GI50 (SK-MEL-2): > 100 µM (inactive)
- GI50 (NCI-H226): 44.2 µM (inactive)
- GI50 (OVCAR-8): 96.4 µM (inactive)
- GI50 (DMS-114): > 100 µM (inactive)
- GI50 (K562): > 100 µM (inactive)
- GI50 (UACC-257): > 100 µM (inactive)
- GI50 (EKVX): > 100 µM (inactive)
- GI50 (HCC 2998): > 100 µM (inactive)
- GI50 (RPMI-8226): 88.5 µM (inactive)
- GI50 (OVCAR-3): > 100 µM (inactive)
- GI50 (HOP-62): > 100 µM (inactive)
- GI50 (IGROV-1): > 100 µM (inactive)
- GI50 (UACC-62): > 100 µM (inactive)
- GI50 (CAKI-1): 75.2 µM (inactive)
- GI50 (COLO 205): > 100 µM (inactive)
- GI50 (HOP-92): > 100 µM (inactive)
- GI50 (UO-31): 46.2 µM (inactive)
- GI50 (SF-295): > 100 µM (inactive)
- GI50 (CCRF-CEM): > 100 µM (inactive)
- GI50 (LXFL 529): > 100 µM (inactive)
- GI50 (HT-29): > 100 µM (inactive)
- GI50 (M14): > 100 µM (inactive)
- GI50 (OVCAR-4): 76.7 µM (inactive)
- GI50 (SW-620): > 100 µM (inactive)
